Assay results: patent publication US12570695B2, “Bicyclic peptide ligands specific for EphA2” (priority 2019, dated 2026)
Starred links: 1 amine or outer side, 2 acyl side, 3 side chain; linkers in the order of their positions; H or OH if unused. Positions of bridges follow the written chain, without caps; N, C: chain ends. Non-standard residues stand in square brackets, D forms with d. Residues, ends and D or L forms follow the SMILES beside them. X5 = O=C(CCSCCN[*:3])N1CN(C(=O)CC[*:1])CN(C(=O)CC[*:2])C1; TATA = O=C(CC[*:1])N1CN(C(=O)CC[*:2])CN(C(=O)CC[*:3])C1; Ala(4-thiazolyl) = N[C@@H](Cc1cscn1)C(=O)O; Dip = N[C@H](C(=O)O)C(c1ccccc1)c1ccccc1; d1Nal = N[C@H](Cc1cccc2ccccc12)C(=O)O; Hyp = O=C(O)[C@@H]1C[C@@H](O)CN1; hArg = N=C(N)NCCCC[C@H](N)C(=O)O; 3Thi = N[C@@H](Cc1ccsc1)C(=O)O; Aad = N[C@@H](CCCC(=O)O)C(=O)O; Cba = N[C@@H](CC1CCC1)C(=O)O; NMeA = CN[C@@H](C)C(=O)O

target: human EphA2 (Homo sapiens, UniProt P29317); assay: biochemical
Sequence (P29317 24-976): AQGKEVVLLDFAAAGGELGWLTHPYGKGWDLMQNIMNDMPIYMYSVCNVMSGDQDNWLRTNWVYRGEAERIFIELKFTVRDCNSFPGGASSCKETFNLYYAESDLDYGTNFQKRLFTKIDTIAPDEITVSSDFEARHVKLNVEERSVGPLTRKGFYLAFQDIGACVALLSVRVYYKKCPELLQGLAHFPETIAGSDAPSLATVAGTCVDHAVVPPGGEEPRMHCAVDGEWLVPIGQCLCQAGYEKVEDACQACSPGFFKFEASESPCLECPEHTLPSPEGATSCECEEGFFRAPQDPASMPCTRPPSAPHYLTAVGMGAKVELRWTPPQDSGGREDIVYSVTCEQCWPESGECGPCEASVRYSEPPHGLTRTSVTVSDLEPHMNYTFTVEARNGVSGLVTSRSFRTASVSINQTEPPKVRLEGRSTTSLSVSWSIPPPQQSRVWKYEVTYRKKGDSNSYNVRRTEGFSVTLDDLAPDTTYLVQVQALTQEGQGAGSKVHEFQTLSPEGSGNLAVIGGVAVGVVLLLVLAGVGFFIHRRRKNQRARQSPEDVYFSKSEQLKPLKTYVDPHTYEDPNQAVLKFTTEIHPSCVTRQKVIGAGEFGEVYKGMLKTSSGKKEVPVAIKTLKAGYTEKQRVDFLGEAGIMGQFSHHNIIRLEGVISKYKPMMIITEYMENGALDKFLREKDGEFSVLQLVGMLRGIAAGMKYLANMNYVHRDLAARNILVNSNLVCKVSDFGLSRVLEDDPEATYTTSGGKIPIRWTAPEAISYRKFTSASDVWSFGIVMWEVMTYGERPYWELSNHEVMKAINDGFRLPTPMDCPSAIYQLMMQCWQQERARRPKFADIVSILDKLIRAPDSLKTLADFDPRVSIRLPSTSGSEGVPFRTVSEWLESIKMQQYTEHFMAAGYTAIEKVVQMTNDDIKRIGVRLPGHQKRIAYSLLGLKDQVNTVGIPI
Procedure: Peptides without a fluorescent tag were tested in competition with a peptide with a fluorescent tag and a known Kd.
Peptides were diluted to an appropriate concentration in assay buffer as described in the direct binding assay with a maximum of 5% DMSO, then serially diluted 1 in 2. […] Measurements were conducted, however the gain was determined prior to the first measurement. Data analysis was in Systat Sigmaplot version 12.0 where the mP values were fit to a user defined cubic equation to generate a Ki value:
“Lig”, “KLig” and “Prot” were all defined values relating to: fluorescent peptide concentration, the Kd of the fluorescent peptide and EphA2 concentration respectively.

Row | Structure (SMILES) | Ki [nM]
1 | CC(C)C[C@@H]1NC(=O)[C@@H]2CSCCC(=O)N3CN(CN(C3)C(=O)CCSC[C@H](NC(=O)[C@H](CC(=O)O)NC(=O)[C@H](CCCCNC(=N)N)NC(=O)[C@@H](C)N)C(=O)N3C[C@H](O)C[C@H]3C(=O)N[C@@H](CC3CCC3)C(=O)N[C@@H](C(C)C)C(=O)N[C@@H](CC(N)=O)C(=O)N3CCC[C@H]3C(=O)N[C@@H](CC(C)C)C(=O)N2)C(=O)CCSC[C@@H](C(=O)N[C@H](C)C(N)=O)NC(=O)[C@H]([C@@H](C)O)NC(=O)[C@H](Cc2c[nH]c3ccccc23)NC(=O)[C@@H](CC(=O)O)NC(=O)[C@@H]2CCCN2C(=O)[C@H](CCC(=O)O)NC1=O [BCY12864, [dA]-[HArg]-D-Ci[HyP][Cba]VNPLCiiLEP[dD]WTCiii-[dA]] (H-[dA][hArg]DC[Hyp][Cba]VNPLCLEP[dD]WTC[dA]-NH2; linker 4-11-18 via TATA; N-terminus and C-terminus assumed) | 9.29
2 | CC(C)C[C@@H]1NC(=O)[C@@H]2CSCCC(=O)N3CN(CN(C3)C(=O)CCSC[C@H](NC(=O)[C@H](CC(=O)O)NC(=O)[C@H](CCCCNC(=N)N)NC(=O)[C@H](C)N)C(=O)N3C[C@H](O)C[C@H]3C(=O)N[C@@H](CC3CCC3)C(=O)N[C@@H](C(C)C)C(=O)N[C@@H](CC(N)=O)C(=O)N3CCC[C@H]3C(=O)N[C@@H](CC(C)C)C(=O)N2)C(=O)CCSC[C@@H](C(N)=O)NC(=O)[C@H](CCCCNC(=N)N)NC(=O)[C@H](Cc2c[nH]c3ccccc23)NC(=O)[C@@H](CC(=O)O)NC(=O)[C@@H]2CCCN2C(=O)[C@H](Cc2c[nH]cn2)NC1=O [BCY12862, A-[HArg]-D-Ci[HyP][Cba]VNPLCiiLHP[dD]W[HArg]Ciii] (H-A[hArg]DC[Hyp][Cba]VNPLCLHP[dD]W[hArg]C-NH2; linker 4-11-18 via TATA; N-terminus and C-terminus assumed) | 1.22
3 | CC(C)C[C@@H]1NC(=O)[C@@H]2CSCCC(=O)N3CN(CN(C3)C(=O)CCSC[C@H](NC(=O)[C@H](CC(=O)O)NC(=O)[C@H](CCCCNC(=N)N)NC(=O)[C@H](C)N)C(=O)N3C[C@H](O)C[C@H]3C(=O)N[C@@H](CC(C)C)C(=O)N[C@@H](C(C)C)C(=O)N[C@@H](CC(N)=O)C(=O)N3CCC[C@H]3C(=O)N[C@@H](CC(C)C)C(=O)N2)C(=O)CCSCCNC(=O)[C@H](CCCCNC(=N)N)NC(=O)[C@H](Cc2c[nH]c3ccccc23)NC(=O)[C@@H](CC(=O)O)NC(=O)[C@@H]2CCCN2C(=O)[C@H](Cc2c[nH]cn2)NC1=O [BCY13133, A[HArg]DCi[HyP]LVNPLCiiLHP[dD]W[HArg][Cysam]iii] (H-A[hArg]DC[Hyp]LVNPLCLHP[dD]W[hArg]; linker 4-11-C via X5; N-terminus assumed) | 3.24
4 | CC(C)C[C@@H]1NC(=O)[C@@H]2CSCCC(=O)N3CN(CN(C3)C(=O)CCSC[C@H](NC(=O)[C@H](CC(=O)O)NC(=O)[C@H](CCCCNC(=N)N)NC(=O)[C@H](C)N)C(=O)N3C[C@H](O)C[C@H]3C(=O)N[C@@H](CC(C)C)C(=O)N[C@@H](C(C)C)C(=O)N[C@@H](CC(N)=O)C(=O)N3CCC[C@H]3C(=O)N[C@@H](CC(C)C)C(=O)N2)C(=O)CCSC[C@@H](C(N)=O)NC(=O)[C@H](CCCCNC(=N)N)NC(=O)[C@H](Cc2c[nH]c3ccccc23)NC(=O)[C@@H](CC(=O)O)NC(=O)[C@@H]2CCCN2C(=O)[C@H](Cc2cscn2)NC1=O [BCY13919, A[HArg]DCi[HyP]LVNPLCiiL[4ThiAz]P[dD]W[HArg]Ciii] (H-A[hArg]DC[Hyp]LVNPLCL[Ala(4-thiazolyl)]P[dD]W[hArg]C-NH2; linker 4-11-18 via TATA; N-terminus and C-terminus assumed) | 2.1
5 | CC(=O)N[C@H]1CSCCC(=O)N2CN3CN(C2)C(=O)CCSC[C@H](NC(=O)[C@H](CC(C)C)NC(=O)[C@@H]2CCCN2C(=O)[C@H](CC(N)=O)NC(=O)[C@H](C(C)C)NC(=O)[C@H](CC(C)C)NC(=O)[C@@H]2C[C@@H](O)CN2C1=O)C(=O)N[C@@H](CC(C)C)C(=O)N[C@@H](Cc1c[nH]cn1)C(=O)N1CCC[C@H]1C(=O)N[C@H](CC(=O)O)C(=O)N[C@@H](Cc1c[nH]c2ccccc12)C(=O)N[C@@H](CCCCNC(=N)N)C(=O)N[C@H](C(=O)N[C@@H](CC(C)C)C(=O)N[C@H](Cc1c[nH]cn1)C(=O)NCC(=O)N[C@H](CCCCN)C(N)=O)CSCCC3=O [BCY13125, [Ac]Ci[HyP]LVNPLCiiLHP[dD]W[HArg]CiiiL[dH]G[dK]] (Ac-C[Hyp]LVNPLCLHP[dD]W[hArg]CL[dH]G[dK]-NH2; linker 1-8-15 via TATA; C-terminus assumed) | 1.83
6 | CC(=O)N[C@H]1CSCCC(=O)N2CN3CN(C2)C(=O)CCSC[C@@H](C(=O)N[C@H](CCCCN)C(N)=O)NC(=O)[C@H]([C@@H](C)O)NC(=O)[C@H](Cc2c[nH]c4ccccc24)NC(=O)[C@@H](CC(=O)O)NC(=O)[C@@H]2CCCN2C(=O)[C@H](C(c2ccccc2)c2ccccc2)NC(=O)[C@H](CC(C)C)NC(=O)[C@H](CSCCC3=O)NC(=O)[C@H](CC(C)C)NC(=O)[C@@H]2CCCN2C(=O)[C@H](CC(N)=O)NC(=O)[C@H](C(C)C)NC(=O)[C@H](CC(C)C)NC(=O)[C@@H]2C[C@@H](O)CN2C1=O [BCY13120, Ac-Ci[HyP]LVNPLCiiL[3,3-DPA]P[dD]WTCiii-[dK]] (Ac-C[Hyp]LVNPLCL[Dip]P[dD]WTC[dK]-NH2; linker 1-8-15 via TATA; C-terminus assumed) | 0.916
7 | CC(C)C[C@@H]1NC(=O)[C@@H]2CSCCC(=O)N3CN(CN(C3)C(=O)CCSC[C@H](NC(=O)[C@H](CC(=O)O)NC(=O)[C@H](CCCCNC(=N)N)NC(=O)[C@H](C)N)C(=O)N3C[C@H](O)C[C@H]3C(=O)N[C@@H](CC(C)C)C(=O)N[C@@H](C(C)C)C(=O)N[C@@H](CC(N)=O)C(=O)N3CCC[C@H]3C(=O)N[C@@H](CC(C)C)C(=O)N2)C(=O)CCSC[C@@H](C(N)=O)NC(=O)[C@H](CCCCNC(=N)N)NC(=O)[C@H](Cc2c[nH]c3ccccc23)NC(=O)[C@@H](CC(=O)O)NC(=O)[C@@H]2CCCN2C(=O)[C@H](Cc2ccsc2)NC1=O [BCY13923, A[HArg]DCi[HyP]LVNPLCiiL[3Thi]P[dD]W[HArg]Ciii] (H-A[hArg]DC[Hyp]LVNPLCL[3Thi]P[dD]W[hArg]C-NH2; linker 4-11-18 via TATA; N-terminus and C-terminus assumed) | 1.32
8 | CC(C)C[C@@H]1NC(=O)[C@@H]2CSCCC(=O)N3CN(CN(C3)C(=O)CCSC[C@H](NC(=O)[C@H](CC(=O)O)NC(=O)[C@H](CCCCNC(=N)N)NC(=O)[C@H](C)N)C(=O)N3C[C@H](O)C[C@H]3C(=O)N[C@@H](CC(C)C)C(=O)N[C@@H](C(C)C)C(=O)N[C@@H](CC(N)=O)C(=O)N3CCC[C@H]3C(=O)N[C@@H](CC(C)C)C(=O)N2)C(=O)CCSC[C@@H](C(N)=O)NC(=O)[C@H]([C@@H](C)O)NC(=O)[C@H](Cc2c[nH]c3ccccc23)NC(=O)[C@@H](Cc2cccc3ccccc23)NC(=O)[C@@H]2CCCN2C(=O)[C@H](CCC(=O)O)NC1=O [BCY13118, A-[HArg]-D-Ci[HyP]LVNPLCiiLEP[d1Nal]WTCiii] (H-A[hArg]DC[Hyp]LVNPLCLEP[d1Nal]WTC-NH2; linker 4-11-18 via TATA; N-terminus and C-terminus assumed) | 5.42
9 | CC(C)C[C@@H]1NC(=O)[C@@H]2CSCCC(=O)N3CN(CN(C3)C(=O)CCSC[C@H](NC(=O)[C@H](CC(=O)O)NC(=O)[C@H](CCCCNC(=N)N)NC(=O)[C@H](C)N)C(=O)N3C[C@H](O)C[C@H]3C(=O)N[C@@H](CCCC(=O)O)C(=O)N[C@@H](C(C)C)C(=O)N[C@@H](CC(N)=O)C(=O)N3CCC[C@H]3C(=O)N[C@@H](CC(C)C)C(=O)N2)C(=O)CCSC[C@@H](C(N)=O)NC(=O)[C@H](CCCCNC(=N)N)NC(=O)[C@H](Cc2c[nH]c3ccccc23)NC(=O)[C@@H](CC(=O)O)NC(=O)[C@@H]2CCCN2C(=O)[C@H](Cc2c[nH]cn2)NC1=O [BCY13130, A-[HArg]-D-Ci[HyP][hGlu]VNPLCiiLHP[dD]W[HArg]Ciii] (H-A[hArg]DC[Hyp][Aad]VNPLCLHP[dD]W[hArg]C-NH2; linker 4-11-18 via TATA; N-terminus and C-terminus assumed) | 7.8
10 | CC(C)C[C@@H]1NC(=O)[C@@H]2C[C@@H](O)CN2C(=O)[C@@H](NC(=O)[C@H](CC(=O)O)NC(=O)[C@H](CCCCNC(=N)N)NC(=O)[C@H](C)N)CSCCC(=O)N2CN3CN(C2)C(=O)CCSC[C@H](NC(=O)[C@H](CC(C)C)NC(=O)[C@@H]2CCCN2C(=O)[C@H](CC(N)=O)NC(=O)[C@H](C(C)C)NC1=O)C(=O)N[C@@H](CCCC(=O)O)C(=O)N[C@@H](Cc1c[nH]cn1)C(=O)N1CCC[C@H]1C(=O)N[C@H](CC(=O)O)C(=O)N[C@@H](Cc1c[nH]c2ccccc12)C(=O)N[C@@H](CCCCNC(=N)N)C(=O)N[C@H](C(N)=O)CSCCC3=O [BCY13131, A-[HArg]-D-Ci[HyP]LVNPLCii[hGlu]HP[dD]W[HArg]Ciii] (H-A[hArg]DC[Hyp]LVNPLC[Aad]HP[dD]W[hArg]C-NH2; linker 4-11-18 via TATA; N-terminus and C-terminus assumed) | 27.1
11 | CN[C@@H](C)C(=O)N[C@@H](CCCCNC(=N)N)C(=O)N[C@@H](CC(=O)O)C(=O)N[C@H]1CSCCC(=O)N2CN3CN(C2)C(=O)CCSC[C@H](NC(=O)[C@H](CC(C)C)NC(=O)[C@@H]2CCCN2C(=O)[C@H](CC(N)=O)NC(=O)[C@H](C(C)C)NC(=O)[C@H](CC(C)C)NC(=O)[C@@H]2C[C@@H](O)CN2C1=O)C(=O)N[C@@H](CC(C)C)C(=O)N[C@@H](CCC(=O)O)C(=O)N1CCC[C@H]1C(=O)N[C@H](CC(=O)O)C(=O)N[C@@H](Cc1c[nH]c2ccccc12)C(=O)N[C@@H]([C@@H](C)O)C(=O)N[C@H](C(N)=O)CSCCC3=O [BCY13122, [NMeAla]-[HArg]-D-Ci[HyP]LVNPLCiiLEP[dD]WTCiii] (H-[NMeA][hArg]DC[Hyp]LVNPLCLEP[dD]WTC-NH2; linker 4-11-18 via TATA; N-terminus and C-terminus assumed) | 7.8
12 | CC(C)C[C@@H]1NC(=O)[C@@H]2CSCCC(=O)N3CN(CN(C3)C(=O)CCSC[C@H](NC(=O)[C@H](CC(=O)O)NC(=O)[C@H](CCCCNC(=N)N)NC(=O)[C@H](C)N)C(=O)N3C[C@H](O)C[C@H]3C(=O)N[C@@H](CC(C)C)C(=O)N[C@@H](C(C)C)C(=O)N[C@@H](CC(N)=O)C(=O)N3CCC[C@H]3C(=O)N[C@@H](CC(C)C)C(=O)N2)C(=O)CCSC[C@@H](C(N)=O)NC(=O)[C@H](CCCCNC(=N)N)NC(=O)[C@H](Cc2c[nH]c3ccccc23)NC(=O)[C@@H](CC(=O)O)NC(=O)[C@@H]2CCCN2C(=O)[C@H](CC(N)=O)NC1=O [BCY14047, A[HArg]DCi[HyP]LVNPLCiiLNP[dD]W[HArg]Ciii] (H-A[hArg]DC[Hyp]LVNPLCLNP[dD]W[hArg]C-NH2; linker 4-11-18 via TATA; N-terminus and C-terminus assumed) | 3.88
